Assay results: paper PMC11202288, “The Structural Basis of the Activity Cliff in Modafinil-Based Dopamine Transporter Inhibitors” (Biomolecules, 2024)
Where two headings read alike, the source gives them in different places.

Biological target: T1, hDAT (human dopamine transporter) (Homo sapiens, UniProt Q01959)
T1 construct: gene SLC6A3; full-length human DAT stably expressed in HEK293 cells; membrane preparation
Assay: [3H]WIN35, […] competition binding, HEK293-hDAT membranes

[1] = read-out: hDAT Ki ± SEM (nM) ^a (n)

T1 sequence (Q01959 whole entry): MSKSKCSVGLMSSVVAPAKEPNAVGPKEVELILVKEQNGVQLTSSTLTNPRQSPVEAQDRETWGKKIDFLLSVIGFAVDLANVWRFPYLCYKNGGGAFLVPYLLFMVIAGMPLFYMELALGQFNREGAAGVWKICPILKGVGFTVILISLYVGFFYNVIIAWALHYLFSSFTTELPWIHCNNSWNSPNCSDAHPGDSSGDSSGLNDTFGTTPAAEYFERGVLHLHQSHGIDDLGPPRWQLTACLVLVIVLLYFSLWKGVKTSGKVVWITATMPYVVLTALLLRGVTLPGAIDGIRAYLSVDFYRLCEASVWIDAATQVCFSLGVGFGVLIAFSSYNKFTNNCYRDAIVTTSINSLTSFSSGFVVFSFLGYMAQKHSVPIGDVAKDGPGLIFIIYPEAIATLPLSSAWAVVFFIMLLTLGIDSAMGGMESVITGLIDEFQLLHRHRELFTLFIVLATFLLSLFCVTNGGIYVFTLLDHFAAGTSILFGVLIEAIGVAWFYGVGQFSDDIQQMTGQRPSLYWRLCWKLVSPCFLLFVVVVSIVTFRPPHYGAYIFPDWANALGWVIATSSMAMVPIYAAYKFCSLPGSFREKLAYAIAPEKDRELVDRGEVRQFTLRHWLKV

| SMILES | Ki [1] [nM] | Ki [nM] |
| --- | --- | --- |
| CC(O)CN1CCN(CCSC(c2ccc(F)cc2)c2ccc(F)cc2)CC1 (stereo not drawn) [JJC8-089] | 69.1 ± 10.5 | – |
| CC(O)CN1[C@H](C)CN(CCSC(c2ccc(F)cc2)c2ccc(F)cc2)C[C@@H]1C (stereo partly drawn) [RDS3-094] | – | 50.1 ± 6.51 |
| CC(O)CN1[C@H](C)CN(CC[S+]([O-])C(c2ccc(F)cc2)c2ccc(F)cc2)C[C@@H]1C (stereo partly drawn) [RDS4-010] | 1570 ± 186 | – |
